Experimental data from patent US7273866B2, “2-aryl thiazole derivatives as KCNQ modulators” (Bristol-Myers Squibb Company, priority 2002, dated 2007).

Tested on: KCNQ channels
Assay: Thallium flux assay for KCNQ channel openers
Format: cell-based
Details: HEK-293 cells stably transfected with a KCNQ family member; for Min. conc. response: minimal active concentration: lowest concentration giving signal amplitude >= four standard deviations of negative controls; for EC50: thallium flux, 10 point concentration series
Experimental: Thallium Flux Assay for KCNQ channel Openers. The thallium assay is a modification of that published by Weaver and is referenced in its entirety (Weaver, C. D. WO 02/31508, 2002).
Approximately 20,000 cells/well of an HEK-293 cell line stably transfected with one of the members of the KCNQ family were plated into clear-bottom, black-walled, poly-D-lysine coated, 384 well assay plates in 20 μl/well of low chloride plating medium. Low chloride plating medium was composed of the following: sodium gluconate, 109 mM; potassium gluconate, 5.4 mM; hemi-calcium gluconate, 3.6 mM; magnesium sulfate, 0.8 mM; sodium bicarbonate, 26.2 mM; sodium phosphate monobasic, 1.2 mM; glutamine, 2 mM; glucose, 5 mM; 4-(2-hydroxyethyl)-1-piperazineethanesulfonic acid (HEPES) (pH 7.3) 10 mM, MEM vitamin solution (10× concentration of vitamins, Gibco/LifeTechnologies 11120-052) and MEM amino acid solution (1× concentration of amino acids, Gibco/LifeTechnologies 11130-051).
Following overnight incubation in a 5% CO2 incubator at 37° C., the cells in the plates were loaded with 20 μl/well of a dye loading solution containing the commercially available thallium-sensitive fluorescent dye BTC-AM, the acetomethoxy ester of BTC (see U.S. Pat. No. 5,501,980) (2 μM) and pluronic acid F-127 (Molecular Probes P 6867) (0.02% w/v) in chloride free assay buffer. Chloride free assay buffer was composed of the following: sodium gluconate, 140 mM; potassium gluconate, 2.5 mM; hemi-calcium gluconate, 6 mM; hemi-magnesium gluconate, 2 mM; glucose, 5 mM; HEPES (pH 7.3), 10 mM.
Following incubation in the dye loading solution for from 45-90 min at room temperature, the dye loading solution was removed by aspiration and replaced with 40 μl/well of chloride free assay buffer.
Prior to addition to cell plates, test compound and standard compounds were dissolved in DMSO to 3 mM concentration. Compounds were then diluted from the 3 mM stock to 100-fold over the final assay concentration in DMSO. Finally, compounds in DMSO were diluted from 100-fold over the final assay concentration to 5-fold over the final assay concentration in chloride free assay buffer.
Ten μl/well of compounds at 5-fold over the final assay concentration were then added to the cell plates. This represents a 1:5 dilution, yielding the final test concentration. The wells used for test compounds were A1-P20. Wells A21-P22 contained a standard opener and a maximally efficacious concentration (positive control). Wells A23-P24 contained chloride free assay buffer containing 1% DMSO (negative control).
Following addition of test compounds, the plates were loaded onto the Molecular Devices FLIPR. The 488 nm line of the argon laser was used to excite the BTC and the emission filter was a 540(+/−30) nm. Images were collected at 1 Hz. Ten seconds of baseline were collected and then the FLIPR was used to add 13 μl/well of a stimulus buffer composed of 7.5 mM Tl2SO4 in chloride free assay buffer. Images were collected for an additional 60 seconds.
For data analysis, the amplitude of the average of the negative controls was subtracted from all wells. The amplitudes of the test compounds were then compared to the value of four standard deviations of the negative control wells. The lowest concentration of a test compound sufficient to generate a signal amplitude greater than or equal to four standard deviations from the amplitude of the negative controls was defined as the minimal active concentration.
For generating EC50 values, compounds were serially diluted in 1:3 volume increments to produce a 10 point concentration series. EC50 values were calculated by fitting the resulting amplitudes to a single-site logistic equation. EC50 was defined as the concentration of test compound required to yield 50% of the maximal response. Maximal response (Maximal opening) was the largest signal amplitude divided by the negative control amplitude generated by any concentration of a test compound. […]

Row | SMILES | Min. conc. response | EC50
1 | CC(NC(=O)c1sc(-c2ccccc2Cl)nc1C(F)(F)F)c1cccc(C(F)(F)F)c1 (stereo not shown) [Example 51, 2-(2-chlorophenyl)-4-(trifluoromethyl)-N-[1-[3-(trifluoromethyl)phenyl]ethyl]-5-thiazolecarboxamide] | 0.3 µM | 0.05 to 1 µM
2 | C[C@@H]1CN(c2cccc([C@H](C)NC(=O)c3sc(-c4ncccc4CN4CCOCC4)nc3C(F)(F)F)c2)C[C@H](C)O1 [Example 64, (S)-2-[3-(4-morpholinylmethyl)pyridin-2-yl]-4-(trifluoromethyl)-N-[1-[3-(2,6-dimethyl-4-morpholinyl)phenyl]ethyl]-5-thiazolecarboxamide] | 10 µM | 0.05 to 1 µM
3 | COc1ccccc1-c1nc(C(F)(F)F)c(C(=O)NC(C)c2cccc(N(C)Cc3ccco3)c2)s1 (stereo not shown) [Example 34, 2-(2-methoxyphenyl)-4-(trifluoromethyl)-N-[1-[3-[(2-furanylmethyl)methylamino]phenyl]ethyl]-5-thiazolecarboxamide] | 0.3 µM | < 0.05 µM
4 | COc1cccc([C@H](C)NC(=O)c2sc(-c3cccc(N4CCOCC4)c3)nc2C(F)(F)F)c1 (stereo in doubt) [Example 99] | 3 µM | 
5 | CC(NC(=O)c1sc(-c2ccc3c(c2)OCO3)nc1C(F)(F)F)c1cccc(OC(F)(F)F)c1 (stereo not shown) [Example 20, 2-(3,4-dioxolanylphenyl)-4-(trifluoromethyl)-N-[1-[3-(trifluoromethoxy)phenyl]ethyl]-5-thiazolecarboxamide] | 0.3 µM | 1 to 20 µM
6 | COc1ccc(-c2nc(C(F)(F)F)c(C(=O)NC(C)c3cccc(OC(F)(F)F)c3)s2)cc1 (stereo not shown) [Example 28, 2-(4-methoxyphenyl)-4-(trifluoromethyl)-N-[1-[3-(trifluoromethoxy)phenyl]ethyl]-5-thiazolecarboxamide] | 10 µM | 1 to 20 µM
7 | CC(NC(=O)c1sc(-c2ccccc2CN2CCOCC2)nc1C(F)(F)F)c1cccc(OC(F)(F)F)c1 (stereo not shown) [Example 108] | 0.3 µM | 
8 | CC(NC(=O)c1sc(-c2ccccc2Cl)nc1C(F)(F)F)c1cccc(CN2CCOCC2)c1 (stereo not shown) [Example 53, 2-(2-chlorophenyl)-4-(trifluoromethyl)-N-[1-[3-(4-morpholinylmethyl)phenyl]ethyl]-5-thiazolecarboxamide] | 3 µM | 1 to 20 µM
9 | CC(NC(=O)c1sc(-c2ccc(N3CCOCC3)cc2)nc1C(F)(F)F)c1cccc(OC(F)(F)F)c1 (stereo not shown) [Example 58, 2-[4-(4-morpholinyl)phenyl]-4-(trifluoromethyl)-N-[1-[3-(trifluoromethoxy)phenyl]ethyl]-5-thiazolecarboxamide] | 30 µM | 0.05 to 1 µM
10 | COc1cccc([C@H](C)NC(=O)c2sc(-c3ccccc3CN(C)C)nc2C(F)(F)F)c1 [Example 76] | 10 µM | 0.05 to 1 µM
11 | COc1cccc(-c2nc(C(F)(F)F)c(C(=O)NCc3cccc(F)c3)s2)c1 [Example 85] | 30 µM | 
12 | CC(NC(=O)c1sc(-c2ccccc2F)nc1C(F)(F)F)c1cccc(CN2CCOCC2)c1 (stereo not shown) [Example 37, 2-(2-fluorophenyl)-4-(trifluoromethyl)-N-[1-[3-[(4-morpholinyl)methyl]phenyl]ethyl]-5-thiazolecarboxamide] | 3 µM | 1 to 20 µM
13 | COc1cccc(CNC(=O)c2sc(-c3cc(F)ccc3OC)nc2C(F)(F)F)c1 [Example 45, 2-(5-fluoro-2-methoxyphenyl)-4-(trifluoromethyl)-N-[(3-methoxyphenyl)methyl]-5-thiazolecarboxamide] | 3 µM | 1 to 20 µM
14 | CC(NC(=O)c1sc(-c2ccccc2Cl)nc1C(F)(F)F)c1cccc(OC(F)(F)F)c1 (stereo not shown) [Example 49, 2-(2-chlorophenyl)-4-(trifluoromethyl)-N-[1-[3-(trifluoromethoxy)phenyl]ethyl]-5-thiazolecarboxamide] | 0.3 µM | 0.05 to 1 µM
15 | COc1cccc(-c2nc(C(F)(F)F)c(C(=O)N[C@@H](C)c3cccc(OC(F)(F)F)c3)s2)c1 (stereo in doubt) [Example 24, 2-(3-methoxyphenyl)-4-(trifluoromethyl)-N-[1-[3-(trifluoromethoxy)phenyl]ethyl]-5-thiazolecarboxamide] | 3 µM | 0.05 to 1 µM
16 | C[C@H](NC(=O)c1sc(-c2ccccc2CN2CCOCC2)nc1C(F)(F)F)c1cccc(N2CCOCC2)c1 [Example 110] | 3 µM | 
17 | CCN(Cc1cccnc1-c1nc(C(F)(F)F)c(C(=O)N[C@@H](C)c2cccc(-c3cccnc3)c2)s1)C(C)C [Example 68, (S)-2-[3-[ethyl(2-propyl)aminomethyl]pyridin-2-yl]-4-(trifluoromethyl)-N-[1-[3-(3-pyridinyl)phenyl]ethyl]-5-thiazolecarboxamide] | 30 µM | 1 to 20 µM
18 | CCN(CC)Cc1ccccc1-c1nc(C(F)(F)F)c(C(=O)NC(C)c2cccc(CN3CCOCC3)c2)s1 (stereo not shown) [Example 106] | 10 µM | 
19 | COc1cccc(-c2nc(C(F)(F)F)c(C(=O)NC(C)c3ccc4c(c3)CCO4)s2)c1 (stereo not shown) [Example 86] | 3 µM | 
20 | CC(NC(=O)c1sc(-c2ccccc2F)nc1C(F)(F)F)c1cccc(C(F)(F)F)c1 (stereo not shown) [Example 22, 2-(2-fluorophenyl)-4-(trifluoromethyl)-N-[1-[3-(trifluoromethyl)phenyl]ethyl]-5-thiazolecarboxamide] | 0.3 µM | < 0.05 µM
21 | CC(NC(=O)c1sc(-c2ccccc2Cl)nc1C(F)(F)F)c1cccc(N(C)C)c1 (stereo not shown) [Example 50, 2-(2-chlorophenyl)-4-(trifluoromethyl)-N-[1-[3-(dimethylamino)phenyl]ethyl]-5-thiazolecarboxamide] | 0.3 µM | 0.05 to 1 µM
22 | COc1ccc(F)cc1-c1nc(C(F)(F)F)c(C(=O)N[C@@H](C)c2cccc(N3CCOCC3)c2)s1 [Example 47, (S)-2-(5-fluoro-2-methoxyphenyl)-4-(trifluoromethyl)-N-[1-[3-(4-morpholinyl)phenyl]ethyl]-5-thiazolecarboxamide] | 3 µM | 1 to 20 µM
23 | COc1ccccc1-c1nc(C(F)(F)F)c(C(=O)NC(C)c2cccc(N3CCCC3)c2)s1 (stereo not shown) [Example 33, 2-(2-methoxyphenyl)-4-(trifluoromethyl)-N-[1-[3-(1-pyrrolidinyl)phenyl]ethyl]-5-thiazolecarboxamide] | 3 µM | 0.05 to 1 µM
24 | COc1ccc(-c2nc(C(F)(F)F)c(C(=O)NC(C)c3cccc(OC(F)(F)F)c3)s2)cc1OC (stereo not shown) [Example 29, 2-(3,4-dimethoxyphenyl)-4-(trifluoromethyl)-N-[1-[3-(trifluoromethoxy)phenyl]ethyl]-5-thiazolecarboxamide] | 3 µM | 0.05 to 1 µM
25 | CCN(CC)CCOc1ccccc1-c1nc(C(F)(F)F)c(C(=O)N[C@@H](C)c2cccc(OC)c2)s1 [Example 101] | 3 µM | 
26 | CCN(Cc1ccncc1)Cc1ccccc1-c1nc(C(F)(F)F)c(C(=O)NCc2cccc(OC)c2)s1 [Example 114] | 3 µM | 
27 | CC(NC(=O)c1sc(-c2cccc(N3CCOCC3)c2)nc1C(F)(F)F)c1cccc(OC(F)(F)F)c1 (stereo not shown) [Example 97] | 10 µM | 
28 | CCN(Cc1ccncc1)Cc1ccccc1-c1nc(C(F)(F)F)c(C(=O)N[C@@H](C)c2cccc(N3CCOCC3)c2)s1 [Example 115] | 3 µM | 
